Data on 25 molecules can be found in patent US20060276464A1, “Diarylsulfone sulfonamides and use thereof” (Wyeth, priority 2005, published 2006).

Assay [1] addresses T1, SFRP-1 (Homo sapiens, UniProt Q8N474).
T1 sequence (Q8N474 32-314): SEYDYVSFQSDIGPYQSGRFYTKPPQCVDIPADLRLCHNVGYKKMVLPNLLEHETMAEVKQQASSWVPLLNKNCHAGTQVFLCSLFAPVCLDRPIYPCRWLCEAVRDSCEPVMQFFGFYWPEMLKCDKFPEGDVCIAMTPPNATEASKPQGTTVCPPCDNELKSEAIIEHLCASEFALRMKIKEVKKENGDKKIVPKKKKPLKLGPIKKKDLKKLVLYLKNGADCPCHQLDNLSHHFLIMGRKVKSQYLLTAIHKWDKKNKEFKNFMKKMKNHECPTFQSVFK
Briefly: Cell-based assay for in vitro measurement of SFRP-1/SARP2 antagonist activity (U2OS cells co-transfected with 16x TCF-tk-Luciferase reporter, Wnt and hSFRP-1).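 Also: U2OS cells co-transfected with a TCF-tk luciferase reporter, a Wnt vector, hSFRP-1 or empty vector and CMV-βgal, luciferase luminescence read in cell lysates alongside βgal activity.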 The note with it: U2OS. A general note: Reporter assays use an easily measured gene product as a stand-in for the process of interest.

Assay [2] has as its target T1, SFRP-1. Briefly: Fluorescence polarization binding assay (competitive displacement of a probe compound from SFRP-1).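 Also: test compound competes with a fluorescent probe held by SFRP-1, seen as a drop in probe anisotropy after incubation in darkness, with anisotropy as function of rising compound dose.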 The note with it: fluorescence anisotropy, 45 nM SFRP-1, 20 nM probe.
Setting [3] is: read-out: Fold Induction with SFRP-1, Conc 15 μM, single dose, luciferase reporter, fold induction over SFRP-1 control, cells with SFRP-1.
Setting [4] is: read-out: Fold Induction without SFRP-1, Conc 15 μM, single dose, luciferase reporter, cells without SFRP-1 (specificity control).

Several values for one entry are separate records, joined by “and”; a condition that tells them apart may be missing. Equal values may be shown once. Read-outs that look alike come from different tables or passages of the source.

By IC50 is commonly meant the concentration needed to halve the response being measured. High values mean lower potency, low ones higher potency. For `CC(C)c1ccc(S(=O)(=O)c2cccc(C#N)c2)cc1S(=O)(=O)NCCc1ccccn1` [Example 539, 5-[(3-cyanophenyl)sulfonyl]-2-isopropyl-N-(2-pyridin-2-ylethyl)benzenesulfonamide], the fold induction at 15 µM was found to be 2.9 in assay [1] (setting [3]) and 1.2 in assay [1] (setting [4]). This molecule had an IC50 in assay [2] of 2600 nM.

As for `CC(C)c1ccc(S(=O)(=O)c2ccc3[nH]ccc3c2)cc1S(=O)(=O)NCCc1ccccn1` [Example 540, 5-(1H-indol-5-ylsulfonyl)-2-isopropyl-N-(2-pyridin-2-ylethyl)benzenesulfonamide], the results for the fold induction at 15 µM in assay [1] (setting [3]) and in assay [1] (setting [4]) were 3.6 and 1.2, respectively. The molecule also returned a half-maximal inhibitory concentration (IC50) in assay [2] of 200 nM.

In the case of `Cc1ccccc1S(=O)(=O)c1ccc(C(C)C)c(S(=O)(=O)NC2CCOCC2)c1` [Example 541, 2-isopropyl-5-[(2-methylphenyl)sulfonyl]-N-(tetrahydro-2H-pyran-4-yl)benzenesulfonamide], the fold induction at 15 µM in assay [1] (setting [3]) was determined as 3.5; in assay [1] (setting [4]) it was 1.2. In assay [2], this molecule showed a half-inhibitory concentration (IC50) of 1500 nM.

For the molecule `Cc1c(Cl)cccc1S(=O)(=O)c1ccc(C(C)C)c(S(=O)(=O)NC2CCOCC2)c1` [Example 542, 5-[(3-chloro-2-methylphenyl)sulfonyl]-2-isopropyl-N-(tetrahydro-2H-pyran-4-yl)benzenesulfonamide], the fold induction at 15 µM in assay [1] (setting [3]) stood at 2.7; in assay [1] (setting [4]) it was 1.1. Also, the half-inhibitory concentration (IC50) in assay [2] came to 1400 nM.

As to `CNc1ccc(S(=O)(=O)c2ccc(C(C)C)c(S(=O)(=O)NCC3CCOCC3)c2)cc1` [Example 543, 2-isopropyl-5-{[4-(methylamino)phenyl]sulfonyl}-N-(tetrahydro-2H-pyran-4-ylmethyl)benzenesulfonamide], the values for the fold induction at 15 µM in assay [1] (setting [3]) and in assay [1] (setting [4]) were 2.7 and 1.1, respectively. For the same molecule, the IC50 in assay [2] was 800 nM and 1600 nM.

Turning to `CC(C)c1ccc(S(=O)(=O)c2ccc(N(C)C)cc2)cc1S(=O)(=O)NC1CCOCC1` [Example 544, 5-{[4-(dimethylamino)phenyl]sulfonyl}-2-isopropyl-N-(tetrahydro-2H-pyran-4-yl)benzenesulfonamide], the fold induction at 15 µM was 2.7 in assay [1] (setting [3]) and 1.2 in assay [1] (setting [4]). Besides, the IC50 in assay [2] is 800 nM and 1700 nM.

For the molecule `CC(C)c1ccc(S(=O)(=O)c2ccc(N(C)C)cc2)cc1S(=O)(=O)NCC1CCOCC1` [Example 545, 5-{[4-(dimethylamino)phenyl]sulfonyl}-2-isopropyl-N-(tetrahydro-2H-pyran-4-ylmethyl)benzenesulfonamide], the fold induction at 15 µM came out at 2.5 in assay [1] (setting [3]) and 1.1 in assay [1] (setting [4]). Besides, the IC50 in assay [2] is 2000 nM and 4000 nM.

For `CC(C)c1ccc(S(=O)(=O)c2ccc(N(C)C)cc2)cc1S(=O)(=O)NCCC1CCOCC1` [Example 546, 5-{[4-(dimethylamino)phenyl]sulfonyl}-2-isopropyl-N-[2-(tetrahydro-2H-pyran-4-yl)ethyl]benzenesulfonamide], the fold induction at 15 µM came to 2.2 in assay [1] (setting [3]) and 1.2 in assay [1] (setting [4]). The IC50 in assay [2] was 1500 nM and 2600 nM.

As for `CC(C)c1ccc(S(=O)(=O)c2ccc(N3CCN(C)CC3)cc2)cc1S(=O)(=O)NC1CCOCC1` [Example 547, 2-isopropyl-5-{[4-(4-methylpiperazin-1-yl)phenyl]sulfonyl}-N-(tetrahydro-2H-pyran-4-yl)benzenesulfonamide], the fold induction at 15 µM came out at 3.7 in assay [1] (setting [3]) and 1.3 in assay [1] (setting [4]). In addition, the IC50 in assay [2] is 1000 nM and 2500 nM.

As to `CC(C)c1ccc(S(=O)(=O)c2ccc(N3CCN(C)CC3)cc2)cc1S(=O)(=O)NCC1CCOCC1` [Example 548, 2-isopropyl-5-{[4-(4-methylpiperazin-1-yl)phenyl]sulfonyl}-N-(tetrahydro-2H-pyran-4-ylmethyl)benzenesulfonamide], the fold induction at 15 µM was 2.5 in assay [1] (setting [3]) and 1.2 in assay [1] (setting [4]). Besides, the IC50 in assay [2] is 2200 nM.

For `CC(C)c1ccc(S(=O)(=O)c2ccc(N3CCN(C)CC3)cc2)cc1S(=O)(=O)NCCC1CCOCC1` [Example 549, 2-isopropyl-5-{[4-(4-methylpiperazin-1-yl)phenyl]sulfonyl}-N-[2-(tetrahydro-2H-pyran-4-yl)ethyl]benzenesulfonamide], the fold induction at 15 µM in assay [1] (setting [3]) was found to be 3.6; in assay [1] (setting [4]) it was 1.5. In addition, the IC50 in assay [2] is 1600 nM and 2900 nM.

With `CCCc1ccc(S(=O)(=O)c2ccccc2)cc1S(=O)(=O)NCCc1ccccc1` [Example 550, N-(2-phenylethyl)-5-(phenylsulfonyl)-2-propylbenzenesulfonamide], the fold induction at 15 µM was 2.9 in assay [1] (setting [3]) and 1.1 in assay [1] (setting [4]). The same molecule registered an IC50 in assay [2] of 1300 nM.

With `CCCc1ccc(S(=O)(=O)c2ccccc2)cc1S(=O)(=O)NCC1CCOCC1` [Example 552, 5-(Phenylsulfonyl)-2-propyl-N-(tetrahydro-2H-pyran-4-ylmethyl)benzenesulfonamide], the fold induction at 15 µM in assay [1] (setting [3]) came out at 2.4; in assay [1] (setting [4]), 1.2. Also, the IC50 in assay [2] was 1200 nM.

Regarding `CCCc1ccc(S(=O)(=O)c2ccccc2)cc1S(=O)(=O)NCCC1CCOCC1` [Example 553, 5-(Phenylsulfonyl)-2-propyl-N-[2-(tetrahydro-2H-pyran-4-yl)ethyl]benzenesulfonamide], the values for the fold induction at 15 µM in assay [1] (setting [3]) and in assay [1] (setting [4]) were 2.5 and 1.1, respectively. The same molecule gave an IC50 in assay [2] of 3000 nM.

On to `CCCc1ccc(S(=O)(=O)c2ccccc2)cc1S(=O)(=O)NC1CCCC1` [Example 554, N-Cyclopentyl-5-(phenylsulfonyl)-2-propylbenzenesulfonamide], for which the fold induction at 15 µM in assay [1] (setting [3]) turned out to be 2.6; in assay [1] (setting [4]), 1.1. For the same molecule, in assay [2], the IC50 turned out to be 1700 nM.

On to `CCCc1ccc(S(=O)(=O)c2ccc(F)cc2)cc1S(=O)(=O)NCCc1ccccc1` [Example 559, 5-[(4-fluorophenyl)sulfonyl]-N-(2-phenylethyl)-2-propylbenzenesulfonamide], for which the fold induction at 15 µM was 2.3 in assay [1] (setting [3]) and 1 in assay [1] (setting [4]). Besides, the 50% inhibitory concentration (IC50) in assay [2] amounted to 1200 nM.

In the case of `CCCc1ccc(S(=O)(=O)c2ccc(F)cc2)cc1S(=O)(=O)NCC1CCOCC1` [Example 561, 5-[(4-Fluorophenyl)sulfonyl]-2-propyl-N-(tetrahydro-2H-pyran-4-ylmethyl)benzenesulfonamide], the fold induction at 15 µM in assay [1] (setting [3]) turned out to be 2.3; in assay [1] (setting [4]), 0.9. Moreover, the IC50 in assay [2] came to 1400 nM.

For the molecule `CCCc1ccc(S(=O)(=O)c2ccc(F)cc2)cc1S(=O)(=O)NCCC1CCOCC1` [Example 562, 5-[(4-Fluorophenyl)sulfonyl]-2-propyl-N-[2-(tetrahydro-2H-pyran-4-yl)ethyl]benzenesulfonamide], the fold induction at 15 µM in assay [1] (setting [3]) is 3.3; in assay [1] (setting [4]), 1.2. Moreover, the IC50 in assay [2] was determined as 1600 nM.

On to `CCCc1ccc(S(=O)(=O)c2ccc(F)cc2)cc1S(=O)(=O)NC1CCCC1` [Example 563, N-Cyclopentyl-5-[(4-fluorophenyl)sulfonyl]-2-propylbenzenesulfonamide], for which the figures for the fold induction at 15 µM in assay [1] (setting [3]) and in assay [1] (setting [4]) were 2.8 and 1.2, respectively. In addition, the IC50 in assay [2] was 3000 nM.

For the molecule `CCCc1ccc(S(=O)(=O)c2ccc(F)cc2)cc1S(=O)(=O)NCCCn1ccnc1` [Example 565, 5-[(4-Fluorophenyl)sulfonyl]-N-[3-(1H-imidazol-1-yl)propyl]-2-propylbenzenesulfonamide], the figures for the fold induction at 15 µM in assay [1] (setting [3]) and in assay [1] (setting [4]) were 4 and 1.2, respectively. In assay [2], the IC50 turned out to be 500 nM.

As for `CNc1ccc(S(=O)(=O)c2ccc(C(C)C)c(S(=O)(=O)NC3CCNCC3)c2)cc1` [Example 568, 2-isopropyl-5-{[4-(methylamino)phenyl]sulfonyl}-N-piperidin-4-ylbenzenesulfonamide], the fold induction at 15 µM in assay [1] (setting [3]) stood at 3.8; in assay [1] (setting [4]) it was 1.1. Besides, the IC50 in assay [2] amounted to 500 nM.

Turning to `Cc1nn(C)c(Cl)c1S(=O)(=O)c1ccc(C(C)C)c(S(=O)(=O)NC2CCOCC2)c1` [Example 569, 5-[(5-chloro-1,3-dimethyl-1H-pyrazol-4-yl)sulfonyl]-2-isopropyl-N-(tetrahydro-2H-pyran-4-yl)benzenesulfonamide], the values for the fold induction at 15 µM in assay [1] (read-out: Fold Induction with SFRP-1) and in assay [1] (read-out: Fold Induction without SFRP-1) were 3.8 and 1.1, respectively. The IC50 in assay [2] was found to be 1500 nM.

On to `CC(C)c1ccc(S(=O)(=O)c2ccc(F)cc2)cc1S(=O)(=O)NC1CCN(C(=O)N2CCOCC2)CC1` [Example 572, 5-[(4-fluorophenyl)sulfonyl]-2-isopropyl-N-[1-(morpholin-4-ylcarbonyl)piperidin-4-yl]benzenesulfonamide], for which the fold induction at 15 µM in assay [1] (setting [3]) is 1.7; in assay [1] (setting [4]), 1. The molecule further registered a 50% inhibitory concentration (IC50) in assay [2] of 500 nM.

Consider `CC(C)c1ccc(S(=O)(=O)c2ccc(F)cc2)cc1S(=O)(=O)NC1CCN(C(=O)N(C)C)CC1` [Example 573, 4-[({5-[(4-fluorophenyl)sulfonyl]-2-isopropylphenyl}sulfonyl)amino]-N,N-dimethylpiperidine-1-carboxamide], for which the fold induction at 15 µM came out at 2.1 in assay [1] (setting [3]) and 1.1 in assay [1] (setting [4]). The same molecule showed an IC50 in assay [2] of 600 nM.

For `Cc1ccc(S(=O)(=O)c2ccc(F)cc2)cc1S(=O)(=O)NC1CCN(Cc2ccccc2)CC1` [Example 574, N-(1-benzylpiperidin-4-yl)-5-[(4-fluorophenyl)sulfonyl]-2-methylbenzenesulfonamide], the fold induction at 15 µM in assay [1] (setting [3]) was 2.1; in assay [1] (setting [4]) it was 1.2. This molecule also came in with a half-inhibitory concentration (IC50) in assay [2] of 6000 nM.
